Laboratory results reported in patent publication US20160213632A1, “Memory Performance and Prevention and Treatment of Neurodegenerative Diseases” (Max Planck Florida Institute for Neuroscience, priority 2015, published 2016).
“Also recorded” adds a separate entry of the source.

Tests used:
[1] = test system: Ras; assay: Active Ras pull-down assay in hippocampus of AD model (APP) mice; assay type: in vivo; details: hippocampus of 6 months old APP mice; daily IP injections for 3 consecutive days
Method: (§1) As a model for AD, male hAPPJ20 transgenic mice were used (Mucke et al., 2000). Non-transgenic male littermates were used for controls.
The level of active Ras in hippocampal lysates from CentA1 KO mice and their wild type litter mates was measured with an active Ras pull-down and detection kit and following the instructions from manufacturer (Thermo Scientific). Western blotting was conducted with mouse anti-Ras antibody.

[2] = test system: ERK1/2; assay: Western blotting for active/phosphorylated ERK1/2 in AD model mice; assay type: in vivo; details: daily IP injections for 3 consecutive days
Method: as §1
Protein expression and/or phosphorylation was evaluated by standard western blotting protocol using the following antibodies: goat anti-centaurin-α1 (Abcam; 1:500); mouse anti-β-actin (Sigma, 1:2000); mouse 6E10 (Covance, 1:1000); rabbit anti-phosphoERK1/2 (Cell Signaling Technologies, 1:1000); mouse anti-ERK1/2 (Cell Signaling Technologies, 1:1000); mouse anti-Ras (Pierce, 1:1000); rabbit anti-Hsp10 (Cell Signaling Technologies, 1:1000); rabbit anti-Hsp60 (Cell Signaling Technologies, 1:1000); and HRP-labeled anti-mouse, anti-goat, or anti-rabbit IgG antibodies (BioRad; 1:2000).

[3] = test system: CA1 neurons; assay: Dendritic spine density in cultured (organotypic) hippocampal slices treated with Aβ; assay type: cell-based, mice
Method: Organotypic hippocampal slice cultures (300 μm thick) were prepared from mice at postnatal day 6 or 7. After 1 week in culture, slices were transfected using biolistic gene transfer. Aβ stock solution (200 μM) was prepared in 1% NH4OH as a vehicle and added directly to the culture medium at a final concentration of 1 μM. FTI-277 was dissolved in DMSO and added directly to the culture medium at a final concentration of 10 μM.

[4] = test system: organotypic slices; details: organotypic slices (Szatmari et al, 2013); cited from earlier work

Structure (SMILES) | Ras activity (pull-down assay) [1] | active/phosphorylated ERK1/2 (downstream of Ras) [2] | dendritic spine density in CA1 neurons exposed to Aβ ([3]; cultured hippocampal slices, vehicle or Aβ in presence or absence of FTI-276 (FIG. 6D)) | Aβ-induced spine loss ([3]; organotypic slices, FTI-277 10 μM, Aβ 1 μM) | Aβ-induced decreased mEPSC frequency [4]
CSCC[C@H](NC(=O)c1ccc(NC[C@@H](N)CS)cc1-c1ccccc1)C(=O)O [FTI-276] | reduced; also recorded: prevented Ras hyperactivation | reduces the activity of signaling pathways downstream of Ras; also recorded: reduced phosphorylation/activation of ERK1/2 | restored | – | –
COC(=O)[C@H](CCSC)NC(=O)c1ccc(NC[C@@H](N)CS)cc1-c1ccccc1 [FTI-277] | – | – | – | prevented | prevented
